Test results as given in PubChem BioAssay AID1963441 (Molecular Pharmacology Branch, DTP, NCI, 2024).

Tested on: NCI-H1876 complex spheroid growth, % test/control
Assay: Anticancer human tumor NCI-H1876 cell line growth inhibition [Asc];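 also: compound exposure lasted 7 days starting three days after seeding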;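 as to viability, T/C: 100% = DMSO vehicle control wells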
Conditions: for viability, T/C: stronger effect = lower value
Outline: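 Spheroid model: tumor line + HUVEC + hMSC. Single agents and combinations; top conc. at/near clinical Cmax (10 microM if undetermined), half-log dilutions. DMSO stocks at 800-fold test concentration.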

[1] = curve of first compound, second compound 0.00949 µM
[2] = curve of first compound, second compound 0.03 µM
[3] = curve of first compound, second compound 0.0949 µM
[4] = curve of first compound, second compound 0.3 µM
[5] = curve of first compound, second compound 0.949 µM
[6] = curve of first compound, second compound 3 µM
[7] = second compound 0.00949 µM, first compound 0.0316 µM
[8] = second compound 0.00949 µM, first compound 0.1 µM
[9] = second compound 0.00949 µM, first compound 0.316 µM
[10] = second compound 0.00949 µM, first compound 1 µM
[11] = second compound 0.00949 µM, first compound 3.16 µM
[12] = second compound 0.00949 µM, first compound 10 µM
[13] = second compound 0.03 µM, first compound 0.0316 µM
[14] = second compound 0.03 µM, first compound 0.1 µM
[15] = second compound 0.03 µM, first compound 0.316 µM
[16] = second compound 0.03 µM, first compound 1 µM
[17] = second compound 0.03 µM, first compound 3.16 µM
[18] = second compound 0.03 µM, first compound 10 µM
[19] = second compound 0.0949 µM, first compound 0.0316 µM
[20] = second compound 0.0949 µM, first compound 0.1 µM
[21] = second compound 0.0949 µM, first compound 0.316 µM
[22] = second compound 0.0949 µM, first compound 1 µM
[23] = second compound 0.0949 µM, first compound 3.16 µM
[24] = second compound 0.0949 µM, first compound 10 µM
[25] = second compound 0.3 µM, first compound 0.0316 µM
[26] = second compound 0.3 µM, first compound 0.1 µM
[27] = second compound 0.3 µM, first compound 0.316 µM
[28] = second compound 0.3 µM, first compound 1 µM
[29] = second compound 0.3 µM, first compound 3.16 µM
[30] = second compound 0.3 µM, first compound 10 µM
[31] = second compound 0.949 µM, first compound 0.0316 µM
[32] = second compound 0.949 µM, first compound 0.1 µM
[33] = second compound 0.949 µM, first compound 0.316 µM
[34] = second compound 0.949 µM, first compound 1 µM
[35] = second compound 0.949 µM, first compound 3.16 µM
[36] = second compound 0.949 µM, first compound 10 µM
[37] = second compound 3 µM, first compound 0.0316 µM
[38] = second compound 3 µM, first compound 0.1 µM
[39] = second compound 3 µM, first compound 0.316 µM
[40] = second compound 3 µM, first compound 1 µM
[41] = second compound 3 µM, first compound 3.16 µM
[42] = second compound 3 µM, first compound 10 µM
[43] = compound alone, run of 11/07/2022

## C=C(F)C(=O)N1CCN(c2nc(OCC3CCCN3C)nc3c2CCN(c2cccc4cccc(Cl)c24)C3)CC1CC#N (stereo not drawn) + CCN1C(C(=O)NC23CCC(C(=O)O)(CC2)CC3)C(c2cccc(Cl)c2F)C2(C(=O)Nc3cc(Cl)ccc32)C12CCCCC2
[1]
  IC50: 6.65 µM
[2]
  IC50: 6.95 µM
[3]
  IC50: 6.91 µM
[4]
  IC50: 6.79 µM
[5]
  IC50: 6.4 µM
[6]
  IC50: 5.67 µM
[7]
  viability, T/C: 93.6%
[8]
  viability, T/C: 102%
[9]
  viability, T/C: 102%
[10]
  viability, T/C: 107%
[11]
  viability, T/C: 107%
[12]
  viability, T/C: 21.5%
[13]
  viability, T/C: 104%
[14]
  viability, T/C: 108%
[15]
  viability, T/C: 109%
[16]
  viability, T/C: 110%
[17]
  viability, T/C: 106%
[18]
  viability, T/C: 24%
[19]
  viability, T/C: 107%
[20]
  viability, T/C: 99.3%
[21]
  viability, T/C: 101%
[22]
  viability, T/C: 98.5%
[23]
  viability, T/C: 101%
[24]
  viability, T/C: 26%
[25]
  viability, T/C: 104%
[26]
  viability, T/C: 92.1%
[27]
  viability, T/C: 99.3%
[28]
  viability, T/C: 110%
[29]
  viability, T/C: 111%
[30]
  viability, T/C: 22.9%
[31]
  viability, T/C: 111%
[32]
  viability, T/C: 107%
[33]
  viability, T/C: 108%
[34]
  viability, T/C: 116%
[35]
  viability, T/C: 109%
[36]
  viability, T/C: 12.7%
[37]
  viability, T/C: 109%
[38]
  viability, T/C: 109%
[39]
  viability, T/C: 110%
[40]
  viability, T/C: 112%
[41]
  viability, T/C: 93.8%
[42]
  viability, T/C: 7.68%

## O=C(c1ccc(F)c(F)c1Nc1ccc(I)cc1F)N1CC(O)([C@@H]2CCCCN2)C1 + CCN1C(C(=O)NC23CCC(C(=O)O)(CC2)CC3)C(c2cccc(Cl)c2F)C2(C(=O)Nc3cc(Cl)ccc32)C12CCCCC2
[1]
  IC50: > 1 µM
[2]
  IC50: > 1 µM
[3]
  IC50: > 1 µM
[4]
  IC50: > 1 µM
[5]
  IC50: > 1 µM
[6]
  IC50: > 1 µM
Second compound 0.00949 µM, first compound 0.00316 µM
  viability, T/C: 102%
Second compound 0.00949 µM, first compound 0.01 µM
  viability, T/C: 90.7%
[7]
  viability, T/C: 104%
[8]
  viability, T/C: 95.7%
[9]
  viability, T/C: 93.4%
[10]
  viability, T/C: 87.7%
Second compound 0.03 µM, first compound 0.00316 µM
  viability, T/C: 100%
Second compound 0.03 µM, first compound 0.01 µM
  viability, T/C: 98.5%
[13]
  viability, T/C: 95.5%
[14]
  viability, T/C: 95.1%
[15]
  viability, T/C: 89.5%
[16]
  viability, T/C: 82.3%
Second compound 0.0949 µM, first compound 0.00316 µM
  viability, T/C: 104%
Second compound 0.0949 µM, first compound 0.01 µM
  viability, T/C: 97.5%
[19]
  viability, T/C: 88%
[20]
  viability, T/C: 102%
[21]
  viability, T/C: 85.8%
[22]
  viability, T/C: 79.2%
Second compound 0.3 µM, first compound 0.00316 µM
  viability, T/C: 99.9%
Second compound 0.3 µM, first compound 0.01 µM
  viability, T/C: 110%
[25]
  viability, T/C: 109%
[26]
  viability, T/C: 101%
[27]
  viability, T/C: 103%
[28]
  viability, T/C: 83.7%
Second compound 0.949 µM, first compound 0.00316 µM
  viability, T/C: 110%
Second compound 0.949 µM, first compound 0.01 µM
  viability, T/C: 114%
[31]
  viability, T/C: 112%
[32]
  viability, T/C: 109%
[33]
  viability, T/C: 108%
[34]
  viability, T/C: 77.4%
Second compound 3 µM, first compound 0.00316 µM
  viability, T/C: 103%
Second compound 3 µM, first compound 0.01 µM
  viability, T/C: 98.3%
[37]
  viability, T/C: 101%
[38]
  viability, T/C: 99.1%
[39]
  viability, T/C: 91.3%
[40]
  viability, T/C: 77.4%

## C=CC(=O)N1CCN(c2nc(=O)n(-c3c(C)ccnc3C(C)C)c3nc(-c4c(O)cccc4F)c(F)cc23)C(C)C1 (stereo not drawn) + CCN1C(C(=O)NC23CCC(C(=O)O)(CC2)CC3)C(c2cccc(Cl)c2F)C2(C(=O)Nc3cc(Cl)ccc32)C12CCCCC2
[1]
  IC50: > 10 µM
[2]
  IC50: > 10 µM
[3]
  IC50: > 10 µM
[4]
  IC50: > 10 µM
[5]
  IC50: > 10 µM
[6]
  IC50: > 10 µM
[7]
  viability, T/C: 93.5%
[8]
  viability, T/C: 90.4%
[9]
  viability, T/C: 101%
[10]
  viability, T/C: 108%
[11]
  viability, T/C: 118%
[12]
  viability, T/C: 106%
[13]
  viability, T/C: 98.2%
[14]
  viability, T/C: 101%
[15]
  viability, T/C: 104%
[16]
  viability, T/C: 103%
[17]
  viability, T/C: 110%
[18]
  viability, T/C: 107%
[19]
  viability, T/C: 96.8%
[20]
  viability, T/C: 93.4%
[21]
  viability, T/C: 107%
[22]
  viability, T/C: 106%
[23]
  viability, T/C: 117%
[24]
  viability, T/C: 107%
[25]
  viability, T/C: 103%
[26]
  viability, T/C: 106%
[27]
  viability, T/C: 115%
[28]
  viability, T/C: 114%
[29]
  viability, T/C: 114%
[30]
  viability, T/C: 109%
[31]
  viability, T/C: 118%
[32]
  viability, T/C: 115%
[33]
  viability, T/C: 104%
[34]
  viability, T/C: 114%
[35]
  viability, T/C: 118%
[36]
  viability, T/C: 112%
[37]
  viability, T/C: 112%
[38]
  viability, T/C: 99.6%
[39]
  viability, T/C: 96.7%
[40]
  viability, T/C: 109%
[41]
  viability, T/C: 114%
[42]
  viability, T/C: 107%

## CCN1C(C(=O)NC23CCC(C(=O)O)(CC2)CC3)C(c2cccc(Cl)c2F)C2(C(=O)Nc3cc(Cl)ccc32)C12CCCCC2 (stereo not drawn)
Compound 0.00949 µM
  viability, T/C: 109% [middle of 9 runs]
Compound 0.0949 µM
  viability, T/C: 103% [middle of 9 runs]
Compound 3 µM
  viability, T/C: 107% [middle of 9 runs]
[43]
  IC50: > 3 µM
Curve of compound
  IC50: > 3 µM

## Cc1c(S(C)(=O)=O)c(-c2cc(F)cc(N3CCN(c4ccc(NS(=O)(=O)c5ccc(NC(CCN6CCC(C(=O)OCCCP(=O)(O)O)CC6)CSc6ccccc6)c(S(=O)(=O)C(F)(F)F)c5)cc4)CC3)c2)c(-c2ccc(Cl)cc2)n1C(C)C (stereo not drawn)
Compound 0.0316 µM
  viability, T/C: 109% [middle of 7 runs]
Compound 0.1 µM
  viability, T/C: 101% [middle of 7 runs]
Compound 0.316 µM
  viability, T/C: 96.3% [middle of 7 runs]
Compound 1 µM
  viability, T/C: 90.5% [middle of 7 runs]
Compound 3.16 µM
  viability, T/C: 95.5% [middle of 7 runs]
Compound 10 µM
  viability, T/C: 102% [middle of 7 runs]
[43]
  IC50: > 10 µM
